Laboratory results published in ChEMBL document CHEMBL1201862, “PubChem BioAssay data set” (2004).
Active and inactive are the calls of the source.

Tests used:
Kallikrein-7 = Kallikrein-7 (Homo sapiens, UniProt P49862); assay: Fluorescence Intensity-based biochemical primary high throughput dose response assay to identify activators of kallikrein-7 (K7) zymogen.
[1] = ZM109 Env clade C HIV-1 fusion inhibitors, dose response, HeLa effector, CEM target cells, luciferase, cherry-pick (AID 652058); type: functional, cell-based
[2] = inhibitors of clade B AD8 Env fusion, dose response, cell-based, cherry-pick (AID 652062); type: functional;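 note: luciferase signal from cell-cell fusion driven by HIV-1 clade B AD8 Env; potency is for inhibitors of fusion seen as a drop in luminescence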
[3] = inhibitors of HIV Env-driven cell fusion, dose response, cherry-pick (AID 652057); type: functional, cell-based
[4] = off-target signal loss in HeLa-CEM21 co-culture – HeLa F-luc CTL cells, cherry-picked, counter-screen for HIV-1 Env fusion inhibitor project, dose response (AID 652040); type: functional, cell-based;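 note: potency for signal decrease marking cytotoxic or nonspecific inhibition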
[5] = MC4R antagonists, dose response, counter-screen for LGR2 antagonist project, cell-based, plate reader, cherry pick (AID 743444); type: functional;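 note: transfected HEK 293 cells stimulated with alpha-MSH peptide; potency of inhibitors of the alpha-MSH evoked signal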
[6] = HEK293 cell cytotoxicity, dose response, cytotoxicity control, plate reader, cherry-picked samples (AID 743446); type: functional, cell-based
[7] = A549 cell cytotoxicity, dose response, cytotoxicity control, plate reader, cherry-pick, antagonist series (AID 743412); type: functional, cell-based
[8] = HepG2 cell cytotoxicity, dose response, cytotoxicity control, plate reader, cherry-pick, antagonist series (AID 743416); type: functional, cell-based
[9] = LGR2 antagonists, dose response, cell-based, HEK293, CRE-luciferase reporter, cherry pick, set 2 (AID 743343); type: functional;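 note: transfected cells were stimulated with diluted bursicon conditioned medium after compound addition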
[10] = T. cruzi growth inhibition in host cells, dose response, cell-based, plate reader, dry powder, set 2 (AID 652275); type: functional
[11] = P. falciparum Dd2 growth inhibitors, dose response, SYBR Green, cherry-picked samples (AID 1159567); type: functional, cell-based
[12] = P. falciparum ATP4 D1247Y mutant growth inhibitors, dose response, NITD609-resistant line, SYBR Green, dry powder (AID 1159571); type: functional, cell-based;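 note: parasites synchronized at ring stage by sorbitol before testing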
[13] = P. falciparum Dd2 growth inhibitors, dose response, SYBR Green, dry powder samples (AID 1159566); type: functional, cell-based;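 note: potency for growth inhibition with lower SYBR green DNA signal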
[14] = P. falciparum 3D7-ScDHODH growth inhibitors, dose response, SYBR Green, dry powder samples (AID 1159570); type: functional, cell-based;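 note: parasite growth measured after 72 hours of compound exposure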
[15] = Vero cell cytotoxicity, dose response, cytotoxicity control for Vif-APOBEC3G degradation inhibitor project, Vero cells (AID 1117358); type: functional; settings: Human immunodeficiency virus 1, Vero
[16] = cytotoxicity toward DRD oncogenic fibroblasts, dose response, cell-based, non-viral oncogenic, luminescence (AID 1934); type: functional; settings: Homo sapiens
BJ [17] = assay: cells; type: functional, cell-based; settings: Homo sapiens
BJ [18] = assay: cytotoxicity toward BJ-TERT fibroblasts, dose response, cell-based, RAS-independent, luminescence (AID 1933); type: functional; settings: Homo sapiens
BJ [19] = assay: cytotoxicity toward BJ-TERT-LT-ST fibroblasts, dose response, cell-based, RAS-independent, luminescence (AID 1935); type: functional; settings: Homo sapiens;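 note: BJ fibroblasts immortalized with TERT plus LT and ST oncogenes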
[20] = Luminescence-based cell-based high throughput dose response assay to identify activators of the DAF-12 from the parasite S. stercoralis (ssDAF-12).; type: functional
[21] = biological target: T1, Oxysterols receptor LXR-beta (Homo sapiens, UniProt P55055); assay: LXR agonists, Gal4 luciferase reporter, dose response, counter-screen for ssDAF-12 agonist project, cell-based, luminescence, HEK293, S. stercoralis campaign (AID 720737); type: functional; settings: read-out: IC50 (the source's name)
T1 sequence (P55055 whole entry): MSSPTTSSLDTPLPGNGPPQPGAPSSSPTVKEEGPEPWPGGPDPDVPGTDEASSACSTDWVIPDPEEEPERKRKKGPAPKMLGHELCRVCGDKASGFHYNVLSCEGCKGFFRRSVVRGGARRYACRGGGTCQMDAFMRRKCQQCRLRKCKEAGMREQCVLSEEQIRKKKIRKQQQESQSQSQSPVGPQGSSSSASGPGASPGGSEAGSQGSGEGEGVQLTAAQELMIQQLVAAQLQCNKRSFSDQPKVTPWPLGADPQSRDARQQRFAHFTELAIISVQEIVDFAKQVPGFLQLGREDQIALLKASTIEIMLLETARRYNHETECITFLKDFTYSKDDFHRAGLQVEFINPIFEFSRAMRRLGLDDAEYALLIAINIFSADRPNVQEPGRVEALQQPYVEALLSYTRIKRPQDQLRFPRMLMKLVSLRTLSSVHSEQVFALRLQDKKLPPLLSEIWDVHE

Protein Tat = biological target: T2, Protein Tat (Human immunodeficiency virus type 1 group M subtype B (isolate HXB2)(HIV-1), UniProt P04608); type: functional;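 note: tat binding to TAR RNA read out by fluorescence polarization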
T2 sequence (P04608 whole entry): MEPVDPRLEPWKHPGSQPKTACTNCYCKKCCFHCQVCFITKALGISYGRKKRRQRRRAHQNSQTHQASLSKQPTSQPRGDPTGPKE

Chain of Kallikrein-7 (P49862 whole entry, the tested form may be a part): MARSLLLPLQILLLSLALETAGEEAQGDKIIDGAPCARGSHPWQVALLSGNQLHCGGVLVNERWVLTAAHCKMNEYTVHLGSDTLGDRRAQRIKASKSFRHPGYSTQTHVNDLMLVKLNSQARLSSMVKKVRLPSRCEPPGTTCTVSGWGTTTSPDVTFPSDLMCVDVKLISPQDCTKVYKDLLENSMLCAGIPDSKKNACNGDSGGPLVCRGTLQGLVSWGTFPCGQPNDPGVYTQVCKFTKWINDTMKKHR

With `CC1CC(C)CN(C(=O)c2cc3c(=O)n4ccccc4nc3s2)C1` (stereo not given) the EC50 (Kallikrein-7) was > 69.5 µM (inactive).

With `CCN1C(=O)[C@H]2[C@@H](c3ccc(C)cc3)N3C(=O)N(c4ccc(C(F)(F)F)cc4)C(=O)[C@@]3(CC(C)C)[C@H]2C1=O` the AC50 [1] was 3.63 µM (active), the AC50 [2] was 4.99 µM (active) and the AC50 [3] was 2 µM (active). The AC50 [4] was 2.35 µM (active).

For `Cc1cccc(N2CCN(C(=O)C3CCN(c4ncnc5c4nc4n5CCCCC4)CC3)CC2)c1C`, the AC50 [5] was 35.8 µM (active), the AC50 [6] was 27.1 µM (active) and the AC50 [7] was 35 µM (active). The AC50 [8] was 34.2 µM (active) and the AC50 [9] was 31.3 µM (active).

For `CC(C)(C)[S+]([O-])N1Cc2cc(C(=O)NCc3ccc4c(c3)OCO4)nc(-c3cccc(-c4cccc(F)c4)c3)c2[C@@H]1CCO` (stereo not given in full), the AC50 [10] was 1.74 µM (active).

With `COc1ccc(C#Cc2ccc3c(c2)[C@H]2[C@H](CCN2C(=O)C2CCCC2)[C@@H](CO)N3)cc1` the AC50 [11] was 2.04 µM (active), the AC50 [12] was 2.2 µM (active) and the AC50 [13] was 1.67 µM (active). The AC50 [14] was 1.99 µM (active).

For `O=C(/C=C/c1cccs1)Nc1ccc(Br)cn1`, the CC50 [15] was > 40 µM (active), the EC50 [16] was 0.373 µM (inconclusive) and the EC50 (BJ [17]) was 25.5 µM (inconclusive). The EC50 (BJ [18]) was 0.417 µM (inconclusive) and the EC50 (BJ [19]) was 10.2 µM (inconclusive).

For `COc1c(N2CCN(C(=S)Nc3ccccc3F)C(C)C2)c(F)cc2c(=O)c(C(=O)O)cn(C3CC3)c12` (stereo not given), the EC50 (Kallikrein-7) was > 69.5 µM (inactive).

With `CCCCCCC1(C)N=C(S)N(c2ccccc2)N1` (stereo not given) the IC50 [20] was > 67.6 µM (inactive) and the EC50 [21] was > 67.6 µM (inactive).

In the case of `CC(C)CN(C(=O)CN1CCN(c2ccc(O)cc2)CC1)c1c(N)n(CC(C)C)c(=O)[nH]c1=O`, the IC50 (Protein Tat) is reported as > 100 µM (active).

In the case of `CCc1cc2c(N3CCCCC3)ncnc2s1`, the CC50 [15] is reported as > 40 µM (active).
